According to patent US12723063B2, “GIPR-agonist compounds” (Eli Lilly and Company, priority 2019, dated 2026):
*1 amine or outer side, *2 acyl side, *3 side chain or, on linkers, in order; H or OH if unused. Where a SMILES comes first, the peptide text is derived from it. Side-chain parts run from the residue outwards. [ ]: non-standard residue; d: D form. The star is where a group is joined. C20 diacid = O=C(O)CCCCCCCCCCCCCCCCCCC(=O)*; αMePhe(2-F) = C[C@](N)(Cc1ccccc1F)C(=O)O; γGlu = O=C(O)[C@H](CCC(=O)[*:2])N[*:1]; 4Pal = N[C@@H](Cc1ccncc1)C(=O)O; αMeL = CC(C)C[C@](C)(N)C(=O)O; AEEA = NCCOCCOCC(=O)O; Aib = CC(C)(N)C(=O)O

Legend:
human GcgR = target: T1, human GcgR (Homo sapiens, UniProt P47871); experiment: [125I]-Glucagon binding, SPA with WGA beads, 0.1% bacitracin; conditions: geometric mean, read-out: hGcgR Ki
T1 construct: expressed in transfected cells; crude membranes
In short: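 SPA competition binding with WGA beads on crude membranes from HEK293 cells stably expressing hGcgR. Buffer: 25 mM HEPES pH 7.4, 2.5 mM CaCl2, 1 mM MgCl2, 0.1% bacitracin, 0.003% Tween-20; 10-point 3-fold dilutions, NSB with 1 μM Gcg.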

human GLP-1R = target: T2, human GLP-1R (Homo sapiens, UniProt P43220); experiment: [125I]-GLP-1 binding, SPA with WGA beads, 0.1% bacitracin; conditions: geometric mean, read-out: hGLP1R Ki
T2 construct: expressed in transfected cells; crude membranes
In short: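 Binding buffer was 25 mM HEPES pH 7.4 with 2.5 mM CaCl2, 1 mM MgCl2, 0.1% (w/v) bacitracin, 0.003% Tween-20 and EDTA-free protease inhibitors. Four-parameter regression gave IC50, converted to Ki (geometric mean, SEM, n independent days).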

T2 sequence (P43220 24-463): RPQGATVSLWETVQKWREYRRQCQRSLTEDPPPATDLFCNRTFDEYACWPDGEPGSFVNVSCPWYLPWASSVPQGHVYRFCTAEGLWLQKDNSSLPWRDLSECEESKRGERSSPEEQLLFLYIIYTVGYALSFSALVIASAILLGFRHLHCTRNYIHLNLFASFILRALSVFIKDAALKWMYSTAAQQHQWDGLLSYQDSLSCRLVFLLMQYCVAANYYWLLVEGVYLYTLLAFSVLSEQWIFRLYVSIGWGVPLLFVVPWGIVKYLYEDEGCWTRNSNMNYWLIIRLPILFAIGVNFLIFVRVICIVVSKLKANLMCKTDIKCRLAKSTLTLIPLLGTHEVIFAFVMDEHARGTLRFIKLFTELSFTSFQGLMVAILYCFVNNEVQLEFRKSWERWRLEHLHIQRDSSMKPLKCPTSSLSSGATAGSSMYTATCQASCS
T1 sequence (P47871 26-477): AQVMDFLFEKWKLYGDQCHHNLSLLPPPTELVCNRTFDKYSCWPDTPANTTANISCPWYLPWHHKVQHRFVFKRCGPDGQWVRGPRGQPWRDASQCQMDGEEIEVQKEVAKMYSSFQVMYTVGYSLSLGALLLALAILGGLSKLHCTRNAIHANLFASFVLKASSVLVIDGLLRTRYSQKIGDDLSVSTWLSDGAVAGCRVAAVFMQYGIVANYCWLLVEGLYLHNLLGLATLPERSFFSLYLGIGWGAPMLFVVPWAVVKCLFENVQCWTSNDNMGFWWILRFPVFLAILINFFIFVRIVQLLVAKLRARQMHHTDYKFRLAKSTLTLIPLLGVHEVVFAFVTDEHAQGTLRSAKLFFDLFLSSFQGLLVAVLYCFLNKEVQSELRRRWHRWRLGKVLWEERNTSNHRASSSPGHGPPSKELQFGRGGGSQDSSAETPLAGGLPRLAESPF

Row | Compound | Ki (human GcgR) [nM] | Ki (human GLP-1R) [nM]
1 | CC[C@H](C)[C@H](NC(=O)[C@H](Cc1ccccc1)NC(=O)[C@@H](NC(=O)CNC(=O)[C@H](CCC(=O)O)NC(=O)C(C)(C)NC(=O)[C@@H](N)Cc1ccc(O)cc1)[C@@H](C)O)C(=O)N[C@@H](CO)C(=O)N[C@@H](CC(=O)O)C(=O)N[C@@H](Cc1ccc(O)cc1)C(=O)N[C@@H](CO)C(=O)N[C@H](C(=O)N[C@@](C)(CC(C)C)C(=O)N[C@@H](CC(C)C)C(=O)N[C@@H](CC(=O)O)C(=O)N[C@@H](CCCCN)C(=O)N[C@@H](CCCCNC(=O)COCCOCCNC(=O)COCCOCCNC(=O)CC[C@H](NC(=O)CCCCCCCCCCCCCCCCC(=O)O)C(=O)O)C(=O)N[C@@H](Cc1c[nH]cn1)C(=O)N[C@@H](CCC(N)=O)C(=O)NC(C)(C)C(=O)N[C@@H](CC(=O)O)C(=O)N[C@@H](Cc1ccccc1)C(=O)N[C@H](C(=O)N[C@@H](CCC(=O)O)C(=O)N[C@@H](Cc1ccncc1)C(=O)N[C@@H](CC(C)C)C(=O)N[C@@H](CC(C)C)C(=O)N[C@@H](C)C(=O)NCC(=O)NCC(=O)N1CCC[C@H]1C(=O)N[C@@H](CO)C(=O)N[C@@H](CO)C(=O)NCC(=O)N[C@@H](C)C(=O)N1CCC[C@H]1C(=O)N1CCC[C@H]1C(=O)N1CCC[C@H]1C(=O)N[C@@H](CO)C(N)=O)C(C)C)[C@@H](C)CC [Example 49] | > 960 | 596
2 | CC[C@H](C)[C@H](NC(=O)[C@H](CO)NC(=O)[C@H](Cc1ccc(O)cc1)NC(=O)[C@H](CC(=O)O)NC(=O)[C@H](CO)NC(=O)[C@@H](NC(=O)[C@](C)(Cc1ccccc1F)NC(=O)[C@@H](NC(=O)CNC(=O)[C@H](CCC(=O)O)NC(=O)C(C)(C)NC(=O)[C@@H](N)Cc1ccc(O)cc1)[C@@H](C)O)[C@@H](C)CC)C(=O)N[C@@H](C)C(=O)N[C@@H](CC(C)C)C(=O)N[C@@H](CC(=O)O)C(=O)N[C@@H](CCCCN)C(=O)N[C@@H](CCCCNC(=O)COCCOCCNC(=O)COCCOCCNC(=O)CC[C@H](NC(=O)CCCCCCCCCCCCCCCCCCC(=O)O)C(=O)O)C(=O)N[C@@H](Cc1c[nH]cn1)C(=O)N[C@@H](CCC(N)=O)C(=O)NC(C)(C)C(=O)N[C@@H](CC(=O)O)C(=O)N[C@@H](Cc1ccccc1)C(=O)N[C@H](C(=O)N[C@@H](CCC(=O)O)C(=O)N[C@@H](Cc1ccncc1)C(=O)N[C@@H](CC(C)C)C(=O)N[C@@H](CC(C)C)C(=O)N[C@@H](CCC(=O)O)C(=O)NCC(=O)NCC(=O)N1CCC[C@H]1C(=O)N[C@@H](CO)C(=O)N[C@@H](CO)C(=O)NCC(=O)N[C@@H](C)C(=O)N1CCC[C@H]1C(=O)N1CCC[C@H]1C(=O)N1CCC[C@H]1C(=O)N[C@@H](CO)C(N)=O)C(C)C [Example 39] (H-Y[Aib]EGT[αMePhe(2-F)]ISDYSIALDKK([AEEA-AEEA-γGlu-C20 diacid])HQ[Aib]DFVE[4Pal]LLEGGPSSGAPPPS-NH2) | 76 | 235
3 | CC[C@H](C)[C@H](NC(=O)[C@H](CO)NC(=O)[C@H](Cc1ccc(O)cc1)NC(=O)[C@H](CC(=O)O)NC(=O)[C@H](CO)NC(=O)[C@@H](NC(=O)[C@](C)(Cc1ccccc1F)NC(=O)[C@@H](NC(=O)CNC(=O)[C@H](CCC(=O)O)NC(=O)C(C)(C)NC(=O)[C@@H](N)Cc1ccc(O)cc1)[C@@H](C)O)[C@@H](C)CC)C(=O)N[C@@H](C)C(=O)N[C@@H](CC(C)C)C(=O)N[C@@H](CC(=O)O)C(=O)N[C@@H](CCCCN)C(=O)N[C@@H](CCCCNC(=O)COCCOCCNC(=O)COCCOCCNC(=O)CC[C@H](NC(=O)CCCCCCCCCCCCCCCCCCC(=O)O)C(=O)O)C(=O)N[C@@H](Cc1c[nH]cn1)C(=O)N[C@@H](CCC(N)=O)C(=O)NC(C)(C)C(=O)N[C@@H](CC(=O)O)C(=O)N[C@@H](Cc1ccccc1)C(=O)N[C@H](C(=O)N[C@@H](CCC(=O)O)C(=O)N[C@@H](Cc1ccc(O)cc1)C(=O)N[C@@H](CC(C)C)C(=O)N[C@@H](CC(C)C)C(=O)N[C@@H](CCC(=O)O)C(=O)N[C@H](C(=O)NCC(=O)N1CCC[C@H]1C(=O)N[C@@H](CO)C(=O)N[C@@H](CO)C(=O)NCC(=O)N[C@@H](C)C(=O)N1CCC[C@H]1C(=O)N1CCC[C@H]1C(=O)N1CCC[C@H]1C(=O)N[C@@H](CO)C(N)=O)[C@@H](C)O)C(C)C [Example 36] (H-Y[Aib]EGT[αMePhe(2-F)]ISDYSIALDKK([AEEA-AEEA-γGlu-C20 diacid])HQ[Aib]DFVEYLLETGPSSGAPPPS-NH2) | 201 | 393
4 | CC[C@H](C)[C@H](NC(=O)[C@H](Cc1ccccc1)NC(=O)[C@@H](NC(=O)CNC(=O)[C@H](CCC(=O)O)NC(=O)C(C)(C)NC(=O)[C@@H](N)Cc1ccc(O)cc1)[C@@H](C)O)C(=O)N[C@@H](CO)C(=O)N[C@@H](CC(=O)O)C(=O)N[C@@H](Cc1ccc(O)cc1)C(=O)N[C@@H](CO)C(=O)N[C@H](C(=O)N[C@@](C)(CC(C)C)C(=O)N[C@@H](CC(C)C)C(=O)N[C@@H](CC(=O)O)C(=O)N[C@@H](CCCCN)C(=O)N[C@@H](CCCCNC(=O)COCCOCCNC(=O)COCCOCCNC(=O)CC[C@H](NC(=O)CCCCCCCCCCCCCCCCCCC(=O)O)C(=O)O)C(=O)N[C@@H](Cc1c[nH]cn1)C(=O)N[C@@H](CCC(N)=O)C(=O)NC(C)(C)C(=O)N[C@@H](CC(=O)O)C(=O)N[C@@H](Cc1ccccc1)C(=O)N[C@H](C(=O)N[C@@H](CCC(=O)O)C(=O)N[C@@H](Cc1c[nH]c2ccccc12)C(=O)N[C@@H](CC(C)C)C(=O)N[C@@H](CC(C)C)C(=O)N[C@@H](CCC(=O)O)C(=O)N[C@H](C(=O)NCC(=O)N1CCC[C@H]1C(=O)N[C@@H](CO)C(=O)N[C@@H](CO)C(=O)NCC(=O)N[C@@H](C)C(=O)N1CCC[C@H]1C(=O)N1CCC[C@H]1C(=O)N1CCC[C@H]1C(=O)N[C@@H](CO)C(N)=O)[C@@H](C)O)C(C)C)[C@@H](C)CC [Example 71] (H-Y[Aib]EGTFISDYSI[αMeL]LDKK([AEEA-AEEA-γGlu-C20 diacid])HQ[Aib]DFVEWLLETGPSSGAPPPS-NH2) | 102 | 347
5 | CC[C@H](C)[C@H](NC(=O)[C@H](Cc1ccccc1)NC(=O)[C@@H](NC(=O)CNC(=O)[C@H](CCC(=O)O)NC(=O)C(C)(C)NC(=O)[C@@H](N)Cc1ccc(O)cc1)[C@@H](C)O)C(=O)N[C@@H](CO)C(=O)N[C@@H](CC(=O)O)C(=O)N[C@@H](Cc1ccc(O)cc1)C(=O)N[C@@H](CO)C(=O)N[C@H](C(=O)N[C@@](C)(CC(C)C)C(=O)N[C@@H](CC(C)C)C(=O)N[C@@H](CC(=O)O)C(=O)N[C@@H](CCCCN)C(=O)N[C@@H](CCCCNC(=O)COCCOCCNC(=O)COCCOCCNC(=O)CC[C@H](NC(=O)CCCCCCCCCCCCCCCCCCC(=O)O)C(=O)O)C(=O)N[C@@H](Cc1c[nH]cn1)C(=O)N[C@@H](CCC(N)=O)C(=O)NC(C)(C)C(=O)N[C@@H](CCC(=O)O)C(=O)N[C@@H](Cc1ccccc1)C(=O)N[C@H](C(=O)N[C@@H](CCC(=O)O)C(=O)N[C@@H](Cc1ccncc1)C(=O)N[C@@H](CC(C)C)C(=O)N[C@@H](CC(C)C)C(=O)N[C@@H](C)C(=O)NCC(=O)NCC(=O)N1CCC[C@H]1C(=O)N[C@@H](CO)C(=O)N[C@@H](CO)C(=O)NCC(=O)N[C@@H](C)C(=O)N1CCC[C@H]1C(=O)N1CCC[C@H]1C(=O)N1CCC[C@H]1C(=O)N[C@@H](CO)C(N)=O)C(C)C)[C@@H](C)CC [Example 52] | 114 | 128
6 | CC[C@H](C)[C@H](NC(=O)[C@H](Cc1ccccc1)NC(=O)[C@@H](NC(=O)CNC(=O)[C@H](CCC(=O)O)NC(=O)C(C)(C)NC(=O)[C@@H](N)Cc1ccc(O)cc1)[C@@H](C)O)C(=O)N[C@@H](CO)C(=O)N[C@@H](CC(=O)O)C(=O)N[C@@H](Cc1ccc(O)cc1)C(=O)N[C@@H](CO)C(=O)N[C@H](C(=O)N[C@@](C)(CC(C)C)C(=O)N[C@@H](CC(C)C)C(=O)N[C@@H](CC(=O)O)C(=O)N[C@@H](CCCCN)C(=O)N[C@@H](CCCCNC(=O)COCCOCCNC(=O)COCCOCCNC(=O)CC[C@H](NC(=O)CCCCCCCCCCCCCCCCCCC(=O)O)C(=O)O)C(=O)N[C@@H](Cc1c[nH]cn1)C(=O)N[C@@H](CCC(N)=O)C(=O)NC(C)(C)C(=O)N[C@@H](CC(=O)O)C(=O)N[C@@H](Cc1ccccc1)C(=O)N[C@H](C(=O)N[C@@H](CCC(=O)O)C(=O)N[C@@H](Cc1ccncc1)C(=O)N[C@@H](CC(C)C)C(=O)N[C@@H](CC(C)C)C(=O)N[C@@H](CCC(=O)O)C(=O)N[C@H](C(=O)NCC(=O)N1CCC[C@H]1C(=O)N[C@@H](CO)C(=O)N[C@@H](CO)C(=O)NCC(=O)N[C@@H](C)C(=O)N1CCC[C@H]1C(=O)N1CCC[C@H]1C(=O)N1CCC[C@H]1C(=O)N[C@@H](CO)C(N)=O)[C@@H](C)O)C(C)C)[C@@H](C)CC [Example 45] (H-Y[Aib]EGTFISDYSI[αMeL]LDKK([AEEA-AEEA-γGlu-C20 diacid])HQ[Aib]DFVE[4Pal]LLETGPSSGAPPPS-NH2) | 660 | > 909
7 | CC[C@H](C)[C@H](NC(=O)[C@H](CO)NC(=O)[C@H](Cc1ccc(O)cc1)NC(=O)[C@H](CC(=O)O)NC(=O)[C@H](CO)NC(=O)[C@@H](NC(=O)[C@](C)(Cc1ccccc1F)NC(=O)[C@@H](NC(=O)CNC(=O)[C@H](CCC(=O)O)NC(=O)C(C)(C)NC(=O)[C@@H](N)Cc1ccc(O)cc1)[C@@H](C)O)[C@@H](C)CC)C(=O)N[C@@H](C)C(=O)N[C@@H](CC(C)C)C(=O)N[C@@H](CC(=O)O)C(=O)N[C@@H](CCCCN)C(=O)N[C@@H](CCCCNC(=O)COCCOCCNC(=O)COCCOCCNC(=O)CC[C@H](NC(=O)CCCCCCCCCCCCCCCCCCC(=O)O)C(=O)O)C(=O)N[C@@H](Cc1c[nH]cn1)C(=O)N[C@@H](CCC(N)=O)C(=O)NC(C)(C)C(=O)N[C@@H](CC(=O)O)C(=O)N[C@@H](Cc1ccccc1)C(=O)N[C@H](C(=O)N[C@@H](CCC(=O)O)C(=O)N[C@@H](Cc1ccncc1)C(=O)N[C@@H](CC(C)C)C(=O)N[C@@H](CC(C)C)C(=O)N[C@@H](CCC(=O)O)C(=O)N[C@H](C(=O)NCC(=O)N1CCC[C@H]1C(=O)N[C@@H](CO)C(=O)N[C@@H](CO)C(=O)NCC(=O)N[C@@H](C)C(=O)N1CCC[C@H]1C(=O)N1CCC[C@H]1C(=O)N1CCC[C@H]1C(=O)N[C@@H](CO)C(N)=O)[C@@H](C)O)C(C)C [Example 38] (H-Y[Aib]EGT[αMePhe(2-F)]ISDYSIALDKK([AEEA-AEEA-γGlu-C20 diacid])HQ[Aib]DFVE[4Pal]LLETGPSSGAPPPS-NH2) | 182 | 776
